Measured values from patent US20050053931A1, “Method for the diagnosis and therapy of renal cell carcinoma” (priority 2001, published 2005).
Residues, ends and D or L forms follow the SMILES beside them. *: point of attachment. Cbz = O=C(OCc1ccccc1)*

Legend:
[1] = tested on: glioma cells; conditions: upon adenoviral Nbk gene transfer with Ad-TreNbk-tTA; cited from earlier work
[2] = tested on: mycNbk expression in DU145 prostate carcinoma cells; assay: Conditional expression of mycNbk after Ad-TreNbk-tTA infection (Western blot); assay type: cell-based, human; conditions: 24 h after infection with Ad-TreNbk-tTA at 25 MOI
Text: For regulable expression of the pro-apoptotic gene Nbk in human cells, an adenoviral vector based on the adenovirus serotype 5 backbone was constructed. In this construct, the E3 region was replaced by the expression cassette for the tTA and the E1 region was replaced by an expression cassette for Nbk. To allow for convenient detection of the exogenous Nbk, a myc tag was inserted at the N-terminus of the human Nbk cDNA. Constitutive expression of the tTA was achieved by putting the tTA under the control of a CMV promoter. In the absence of tetracyclin or doxycyclin the tTA fusion protein binds via the TetR portion to the TRE in the PhCMV* promoter and activates via the VP16AD portion the transcription of the mycNbk. In the presence of tetra- or doxycyclin Nbk expression is repressed and switched off.
The recombinant adenovirus Ad-TreNbk-tTA (FIG. 7A) was employed for expression of the myc tagged Nbk (mycNbk) in a doxycyclin dependent manner. […] Apart from DU145, Nbk could be strongly expressed by the use of this adenoviral vector 24 h after transduction in a panel of other carcinomas or non-epithelial tumor cells, i.e. sarcoma, glioma and other mesenchymal cell types.
Apoptosis was determined by the use of a modified cell cycle analysis technique that relies on the measurement of cellular DNA content on the single cell level by flow cytometry. […]

SMILES | Nbk expression levels [1] | sensitivity for Nbk-induced apoptosis [1] | doxycyclin concentration at which Nbk expression is almost completely suppressed [2]
CC(C)C[C@@H](C=O)NC(=O)[C@H](CC(C)C)NC(=O)[C@H](CC(C)C)NC(=O)OCc1ccccc1 [MG132] (Cbz-Leu-Leu-Leu-aldehyde) | enhanced Nbk expression levels | increased sensitivity for Nbk-induced apoptosis | 
C[C@H]1c2cccc(O)c2C(O)=C2C(=O)[C@]3(O)C(O)=C(C(N)=O)C(=O)[C@@H](N(C)C)[C@@H]3[C@@H](O)[C@@H]21 [doxycyclin] |  |  | ≥ 10 ng/mL
